Active and inactive are the calls of the source. The calls are words filed in the database; no cut-off is given here.
Legend:
[1] = target: Transient receptor potential cation channel subfamily V member 1 (Homo sapiens) (UniProt Q8NER1); test: Inhibition of TRPV1 (unknown origin) assessed as inhibition of capsaicin-induced current at 30 uM by whole cell patch-clamp method relative to control
[2] = target: Transient receptor potential cation channel subfamily M member 8 (Rattus norvegicus) (UniProt Q8R455); test: Inhibition of rat TRPM8 expressed in HEK293T cells cotransfected with GFP assessed as inhibition of […]-induced current at 30 uM by whole cell patch-clamp method relative to control; type: cell-based
Chain of Transient receptor potential cation channel subfamily M member 8 (Rattus norvegicus) (Q8R455 whole entry, looked up): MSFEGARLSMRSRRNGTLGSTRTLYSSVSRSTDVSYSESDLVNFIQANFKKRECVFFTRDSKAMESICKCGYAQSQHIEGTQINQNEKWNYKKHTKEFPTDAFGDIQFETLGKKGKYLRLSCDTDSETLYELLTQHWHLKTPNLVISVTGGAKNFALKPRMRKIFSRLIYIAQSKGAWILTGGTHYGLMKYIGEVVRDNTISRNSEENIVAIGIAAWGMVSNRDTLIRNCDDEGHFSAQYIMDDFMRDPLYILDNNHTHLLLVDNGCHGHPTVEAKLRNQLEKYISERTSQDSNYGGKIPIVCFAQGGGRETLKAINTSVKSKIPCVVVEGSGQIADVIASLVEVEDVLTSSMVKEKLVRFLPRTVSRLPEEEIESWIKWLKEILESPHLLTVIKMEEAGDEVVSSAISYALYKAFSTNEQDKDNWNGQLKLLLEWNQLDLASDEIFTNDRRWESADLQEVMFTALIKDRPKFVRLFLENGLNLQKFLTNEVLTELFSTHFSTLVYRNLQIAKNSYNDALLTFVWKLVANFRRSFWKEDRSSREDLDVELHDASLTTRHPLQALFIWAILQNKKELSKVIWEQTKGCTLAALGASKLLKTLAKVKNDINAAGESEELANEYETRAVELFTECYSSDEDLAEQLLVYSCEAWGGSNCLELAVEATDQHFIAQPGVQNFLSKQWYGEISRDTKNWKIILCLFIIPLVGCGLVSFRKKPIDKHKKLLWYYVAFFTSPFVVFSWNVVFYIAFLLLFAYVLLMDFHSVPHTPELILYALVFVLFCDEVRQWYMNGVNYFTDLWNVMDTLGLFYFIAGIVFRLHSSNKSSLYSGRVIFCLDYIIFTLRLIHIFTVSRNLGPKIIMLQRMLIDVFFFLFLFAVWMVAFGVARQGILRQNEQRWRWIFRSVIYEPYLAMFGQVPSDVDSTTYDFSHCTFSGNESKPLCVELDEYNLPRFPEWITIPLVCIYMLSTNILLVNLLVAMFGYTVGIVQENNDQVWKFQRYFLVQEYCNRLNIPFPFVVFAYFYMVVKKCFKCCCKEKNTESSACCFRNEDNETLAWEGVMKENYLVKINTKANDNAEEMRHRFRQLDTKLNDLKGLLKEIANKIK

[3] = target: T1, Transient receptor potential cation channel subfamily M member 2 (Homo sapiens, UniProt O94759); test: Inhibition of human TRPM2 expressed in HEK293T cells cotransfected with GFP assessed as reduction in ADPR-induced current at 30 uM by whole cell patch-clamp method relative to control; type: cell-based
T1 sequence (O94759 whole entry): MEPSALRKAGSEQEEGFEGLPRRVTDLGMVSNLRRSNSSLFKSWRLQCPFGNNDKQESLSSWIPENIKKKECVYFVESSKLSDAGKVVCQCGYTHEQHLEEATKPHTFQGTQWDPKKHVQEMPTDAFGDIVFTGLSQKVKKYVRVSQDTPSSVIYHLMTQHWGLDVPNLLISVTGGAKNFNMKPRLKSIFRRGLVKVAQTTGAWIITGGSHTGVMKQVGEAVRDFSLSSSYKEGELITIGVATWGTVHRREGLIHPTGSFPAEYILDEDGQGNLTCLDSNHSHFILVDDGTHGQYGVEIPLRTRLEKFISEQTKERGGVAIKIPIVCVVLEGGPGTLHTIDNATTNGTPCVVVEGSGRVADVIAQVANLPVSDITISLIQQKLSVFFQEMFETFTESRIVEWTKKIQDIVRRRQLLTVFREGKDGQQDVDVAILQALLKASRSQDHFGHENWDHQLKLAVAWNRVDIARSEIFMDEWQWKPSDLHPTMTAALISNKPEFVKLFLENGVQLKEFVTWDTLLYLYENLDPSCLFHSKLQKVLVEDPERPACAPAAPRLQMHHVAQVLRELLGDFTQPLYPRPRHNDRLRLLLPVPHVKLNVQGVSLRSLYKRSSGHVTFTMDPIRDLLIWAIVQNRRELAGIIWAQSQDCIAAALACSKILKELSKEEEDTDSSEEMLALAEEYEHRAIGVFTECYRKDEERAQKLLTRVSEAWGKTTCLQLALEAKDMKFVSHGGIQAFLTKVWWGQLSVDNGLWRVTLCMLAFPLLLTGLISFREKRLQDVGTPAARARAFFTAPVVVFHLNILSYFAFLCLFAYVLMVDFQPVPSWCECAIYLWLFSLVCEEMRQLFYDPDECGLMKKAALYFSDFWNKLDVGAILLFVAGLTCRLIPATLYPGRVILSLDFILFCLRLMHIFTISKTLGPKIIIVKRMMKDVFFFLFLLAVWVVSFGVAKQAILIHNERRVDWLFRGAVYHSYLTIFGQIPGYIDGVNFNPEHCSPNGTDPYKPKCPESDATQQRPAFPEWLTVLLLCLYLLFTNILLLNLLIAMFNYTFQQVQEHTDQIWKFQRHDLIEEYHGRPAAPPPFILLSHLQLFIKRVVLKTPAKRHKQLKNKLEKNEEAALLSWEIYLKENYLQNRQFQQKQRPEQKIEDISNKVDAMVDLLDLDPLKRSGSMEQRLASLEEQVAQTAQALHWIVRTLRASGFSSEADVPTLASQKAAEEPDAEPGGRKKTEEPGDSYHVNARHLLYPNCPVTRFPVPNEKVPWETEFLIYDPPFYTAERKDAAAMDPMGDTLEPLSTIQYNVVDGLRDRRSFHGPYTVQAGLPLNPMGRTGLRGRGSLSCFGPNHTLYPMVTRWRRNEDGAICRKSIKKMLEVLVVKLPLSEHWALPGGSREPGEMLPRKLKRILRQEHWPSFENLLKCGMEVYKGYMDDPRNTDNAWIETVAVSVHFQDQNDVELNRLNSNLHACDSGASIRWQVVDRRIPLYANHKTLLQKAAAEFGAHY

SH-SY5Y [4] = test: Neuroprotection against H202-induced cell death in human SH-SY5Y cells assessed as increase in cell viability at 100 uM after 24 hrs by CCK8 assay; type: functional, cell-based
SH-SY5Y [5] = test: Neuroprotection against H202-induced cell death in TRPM2 knockdown human SH-SY5Y cells assessed as increase in cell viability at 100 uM after 24 hrs by CCK8 assay; type: functional, cell-based
[6] = target: T1, Transient receptor potential cation channel subfamily M member 2; test: Inhibition of human TRPM2 expressed in HEK293T cells cotransfected with GFP assessed as reduction in ADPR-induced current by whole cell patch-clamp method; type: cell-based
SH-SY5Y [7] = test: Cytotoxicity against human SH-SY5Y cells at 30 uM measured after 24 hrs by CCK-8 assay; type: cell-based
[8] = target: T1, Transient receptor potential cation channel subfamily M member 2; test: Inhibition of human TRPM2 expressed in HEK293T cells cotransfected with GFP assessed as reduction in ADPR-induced current at 10 uM by whole cell patch-clamp method relative to control; type: cell-based

Chain of Transient receptor potential cation channel subfamily V member 1 (Homo sapiens) (Q8NER1 whole entry): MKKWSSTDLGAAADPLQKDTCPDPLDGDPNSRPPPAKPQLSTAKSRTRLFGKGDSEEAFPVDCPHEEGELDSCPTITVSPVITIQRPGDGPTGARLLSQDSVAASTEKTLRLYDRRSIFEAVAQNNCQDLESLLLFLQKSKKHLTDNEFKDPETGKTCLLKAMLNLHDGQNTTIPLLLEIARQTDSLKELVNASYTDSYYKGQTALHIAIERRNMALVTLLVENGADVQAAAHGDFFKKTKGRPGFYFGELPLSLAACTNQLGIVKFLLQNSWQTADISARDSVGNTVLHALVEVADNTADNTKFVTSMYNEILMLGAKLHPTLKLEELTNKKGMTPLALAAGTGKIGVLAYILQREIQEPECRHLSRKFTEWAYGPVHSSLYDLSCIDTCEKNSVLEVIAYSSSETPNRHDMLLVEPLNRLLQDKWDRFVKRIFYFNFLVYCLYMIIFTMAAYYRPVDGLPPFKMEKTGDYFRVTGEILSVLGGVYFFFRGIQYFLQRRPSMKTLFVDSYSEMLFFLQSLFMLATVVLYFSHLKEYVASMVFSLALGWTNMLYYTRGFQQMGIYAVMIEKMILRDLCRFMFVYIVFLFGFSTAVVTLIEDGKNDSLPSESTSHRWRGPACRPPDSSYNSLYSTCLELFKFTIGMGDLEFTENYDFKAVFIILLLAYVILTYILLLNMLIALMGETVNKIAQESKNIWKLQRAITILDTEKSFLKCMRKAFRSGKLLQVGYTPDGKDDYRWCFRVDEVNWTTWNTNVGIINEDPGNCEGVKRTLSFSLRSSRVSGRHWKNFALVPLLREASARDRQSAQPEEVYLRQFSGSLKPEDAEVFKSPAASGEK

Row | inhibition [1] [%] | inhibition [2] [%] | inhibition [3] [%] | IC50 [6] [µM] | inhibition [8] [%] | SMILES | Activity (SH-SY5Y [4]) | Activity (SH-SY5Y [5]) | Activity (SH-SY5Y [7])
1 | 40 | 26 | 90 | 6.2 | – | CCN(CC)CCn1c2ccccc2n2c(C(=O)c3ccc(-c4ccccc4)cc3)c(C)nc12 | Active | inactive | Non-Toxic
2 | – | – | – | – | 50 | CCN(CC)CCn1c2ccccc2n2c(C(C)=O)c(C)nc12 | – | – | –
3 | 22 | 36 | 90 | 8.1 | – | CCN(CC)CCn1c2ccccc2n2c(C(=O)c3cc4ccccc4o3)c(C)nc12 | Active | inactive | Non-Toxic
